In this assay the target is T1, STAT6 (Homo sapiens, UniProt P42226).
T1 construct: endogenous in cells; host or cells: MOLM-16, KU-812, SKNO1, MB231, L1236
T1 sequence (P42226 1-847): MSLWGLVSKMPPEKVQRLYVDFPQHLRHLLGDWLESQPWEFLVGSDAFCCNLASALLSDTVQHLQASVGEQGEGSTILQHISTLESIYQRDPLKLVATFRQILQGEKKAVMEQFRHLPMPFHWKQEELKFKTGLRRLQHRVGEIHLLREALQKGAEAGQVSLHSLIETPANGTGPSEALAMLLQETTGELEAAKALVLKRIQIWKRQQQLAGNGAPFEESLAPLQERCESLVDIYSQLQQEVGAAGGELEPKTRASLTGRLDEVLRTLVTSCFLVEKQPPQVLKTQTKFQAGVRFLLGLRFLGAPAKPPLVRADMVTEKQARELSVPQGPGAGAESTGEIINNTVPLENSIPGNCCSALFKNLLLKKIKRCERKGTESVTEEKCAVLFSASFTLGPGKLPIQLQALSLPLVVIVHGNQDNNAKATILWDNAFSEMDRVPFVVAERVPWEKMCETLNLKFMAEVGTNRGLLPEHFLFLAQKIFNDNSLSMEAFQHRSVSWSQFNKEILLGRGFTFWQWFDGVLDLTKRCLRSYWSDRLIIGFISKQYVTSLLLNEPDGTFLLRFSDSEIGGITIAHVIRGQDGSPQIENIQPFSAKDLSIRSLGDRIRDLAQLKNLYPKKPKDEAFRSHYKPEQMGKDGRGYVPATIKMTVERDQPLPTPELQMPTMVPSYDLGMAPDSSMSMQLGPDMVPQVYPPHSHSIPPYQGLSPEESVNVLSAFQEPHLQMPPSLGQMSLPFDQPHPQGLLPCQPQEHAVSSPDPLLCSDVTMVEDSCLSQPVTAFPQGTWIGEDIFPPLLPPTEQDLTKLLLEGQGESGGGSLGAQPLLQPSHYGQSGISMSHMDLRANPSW
Description: Immunoblotting (Western blot) analysis of STAT6 degradation efficiency of degraders in treated cells. It counts as cell-based. The essentials:
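About 1 million cells per point, grown in 10% FBS medium at 37 °C/5% CO2, were exposed to compound at the indicated concentrations and times, then lysed in RIPA buffer with protease and phosphatase inhibitors. Equal protein (20-40 μg) was resolved by SDS-PAGE, blotted to PVDF, and probed with anti-STAT5, anti-STAT6 and anti-GAPDH antibodies.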

Setting [1] is: MOLM-16 cells, class symbols, read-out: DC50 S6 MOLM-16.
The mark [2] stands for this setting: L1236 cells, read-out: DC50 S6 L1236.
Setting [3] is: MB231 cells, read-out: DC50 S6 MB231.

Molecules are shown by their SMILES. Where two headings read alike, the source gives them in different places.

On to `CC(C)(C)[C@H](NC(=O)C1=Cc2cc(C(F)(F)P(=O)(O)O)ccc2C1)C(=O)N1CSN(C(=O)CC(=O)NCC#Cc2cccc3c2C(=O)N(C2CCC(=O)NC2=O)C3=O)C[C@H]1C(=O)N1CCC[C@H](c2ccccc2)C1` (stereo partly drawn) [Compound 521, ((2-(((2S)-1-((4S)-2-(3-((3-(2-(2,6-dioxopiperidin-3-yl)-1,3-dioxoisoindolin-4-yl)prop-2-yn-1-yl)amino)-3-oxopropanoyl)-4-((R)-3-phenylpiperidine-1-carbonyl)-1,2,5-thiadiazinan-5-yl)-3,3-dimethyl-1-oxobutan-2-yl)carbamoyl)-1H-inden-5-yl)difluoromethyl)phosphonic acid], for which the 50% degradation concentration (DC50) under setting [1] was > 10 µM.

As to `CC(C)(C)[C@H](NC(=O)c1cc2cc(C(F)(F)P(=O)(O)O)ccc2s1)C(=O)N1C[C@@H](NC(=O)CCCC#Cc2ccc3c(c2)CN(C2CCC(=O)NC2=O)C3=O)C[C@H]1C(=O)N1CCO[C@H](c2ccccc2)C1` (stereo partly drawn) [Compound 588, ((2-(((2S)-1-((2S,4S)-4-(6-(2-(2,6-dioxopiperidin-3-yl)-1-oxoisoindolin-5-yl)hex-5-ynamido)-2-((R)-2-phenylmorpholine-4-carbonyl)pyrrolidin-1-yl)-3,3-dimethyl-1-oxobutan-2-yl)carbamoyl)benzo[b]thiophen-5-yl)difluoromethyl)phosphonic acid], the DC50 by setting is: under setting [2], > 10 µM; under setting [1], > 10 µM.

Turning to `CC(C)(C)[C@H](NC(=O)c1cc2cc(C(F)(F)P(=O)(O)O)ccc2s1)C(=O)N1CCN(C(=O)CC(=O)NCC#Cc2ccc3c(c2)C(=O)N(C2CCC(=O)NC2=O)C3=O)C[C@H]1C(=O)N1CCO[C@H](c2ccccc2)C1` (stereo partly drawn) [Compound 508, ((2-(((2S)-1-((2S)-4-(3-((3-(2-(2,6-dioxopiperidin-3-yl)-1,3-dioxoisoindolin-5-yl)prop-2-yn-1-yl)amino)-3-oxopropanoyl)-2-((R)-2-phenylmorpholine-4-carbonyl)piperazin-1-yl)-3,3-dimethyl-1-oxobutan-2-yl)carbamoyl)benzo[b]thiophen-5-yl)difluoromethyl)phosphonic acid], the DC50 under setting [1] is > 10 µM.

Turning to `Cc1ncsc1-c1ccc([C@H](C)NC(=O)[C@@H]2C[C@@H](O)CN2C(=O)[C@@H](NC(=O)CCCCCCCNC(=O)CC(=O)N2CCN(C(=O)[C@@H](NC(=O)c3cc4cc(C(F)(F)P(=O)(O)O)ccc4s3)C(C)(C)C)[C@H](C(=O)N3CCC[C@H](c4ccccc4)C3)C2)C(C)(C)C)cc1` [Compound 458, (difluoro(2-(((S)-1-((S)-4-(3-((8-(((S)-1-((2S,4R)-4-hydroxy-2-(((S)-1-(4-(4-methylthiazol-5-yl)phenyl)ethyl)carbamoyl)pyrrolidin-1-yl)-3,3-dimethyl-1-oxobutan-2-yl)amino)-8-oxooctyl)amino)-3-oxopropanoyl)-2-((R)-3-phenylpiperidine-1-carbonyl)piperazin-1-yl)-3,3-dimethyl-1-oxobutan-2-yl)carbamoyl)benzo[b]thiophen-5-yl)methyl)phosphonic acid], the 50% degradation concentration (DC50) was > 10 µM under setting [2] and > 10 µM under setting [1].

In the case of `CC(C)(C)[C@H](NC(=O)c1cc2cc(C(F)(F)P(=O)(O)O)ccc2s1)C(=O)N1Cc2cc(OCC(=O)NCCCCCC#Cc3cccc4c3C(=O)N(C3CCC(=O)NC3=O)C4=O)ccc2C[C@H]1C(=O)N1CCC[C@H](c2ccccc2)C1` (stereo partly drawn) [Compound 557, ((2-(((2S)-1-((3S)-7-(2-((7-(2-(2,6-dioxopiperidin-3-yl)-1,3-dioxoisoindolin-4-yl)hept-6-yn-1-yl)amino)-2-oxoethoxy)-3-((R)-3-phenylpiperidine-1-carbonyl)-3,4-dihydroisoquinolin-2(1H)-yl)-3,3-dimethyl-1-oxobutan-2-yl)carbamoyl)benzo[b]thiophen-5-yl)difluoromethyl)phosphonic acid], under setting [1], the DC50 was > 10 µM.

As to `CC(C)(C)[C@H](NC(=O)c1cc2cc(C(F)(F)P(=O)(O)O)ccc2s1)C(=O)N1CCN(C(=O)CC(=O)NCCCC#Cc2cccc3c2C(=O)N(C2CCC(=O)NC2=O)C3=O)C[C@H]1C(=O)N1CCO[C@H](c2ccccc2)C1` (stereo partly drawn) [Compound 511, ((2-(((2S)-1-((2S)-4-(3-((5-(2-(2,6-dioxopiperidin-3-yl)-1,3-dioxoisoindolin-4-yl)pent-4-yn-1-yl)amino)-3-oxopropanoyl)-2-((R)-2-phenylmorpholine-4-carbonyl)piperazin-1-yl)-3,3-dimethyl-1-oxobutan-2-yl)carbamoyl)benzo[b]thiophen-5-yl)difluoromethyl)phosphonic acid], the DC50 under setting [1] was 1 to 10 µM.

With `Cc1ncsc1-c1ccc([C@H](CC(=O)NCCCCCCC(=O)N[C@H]2C[C@@H](C(=O)N3CCO[C@H](c4ccccc4)C3)N(C(=O)[C@@H](NC(=O)c3cc4cc(C(F)(F)P(=O)(O)O)ccc4s3)C(C)(C)C)C2)NC(=O)[C@@H]2C[C@@H](O)CN2C(=O)[C@@H](NC(=O)C2(F)CC2)C(C)(C)C)cc1` [Compound 569, (difluoro(2-(((S)-1-((2S,4S)-4-(7-((S)-3-((2S,4R)-1-((S)-2-(1-fluorocyclopropane-1-carboxamido)-3,3-dimethylbutanoyl)-4-hydroxypyrrolidine-2-carboxamido)-3-(4-(4-methylthiazol-5-yl)phenyl)propanamido)heptanamido)-2-((R)-2-phenylmorpholine-4-carbonyl)pyrrolidin-1-yl)-3,3-dimethyl-1-oxobutan-2-yl)carbamoyl)benzo[b]thiophen-5-yl)methyl)phosphonic acid], the DC50 under setting [1] is > 10 µM.

With `CC(C)(C)[C@H](NC(=O)c1cc2cc(C(F)(F)P(=O)(O)O)ccc2s1)C(=O)N1CCC[C@H]1C(=O)N(CCC(=O)NCCCCCCCCCC#Cc1cccc2c1CN(C1CCC(=O)NC1=O)C2=O)c1ccc(Br)cc1` (stereo partly drawn) [Compound 402, ((2-(((2S)-1-((2S)-2-((4-bromophenyl)(3-((11-(2-(2,6-dioxopiperidin-3-yl)-1-oxoisoindolin-4-yl)undec-10-yn-1-yl)amino)-3-oxopropyl)carbamoyl)pyrrolidin-1-yl)-3,3-dimethyl-1-oxobutan-2-yl)carbamoyl)benzo[b]thiophen-5-yl)difluoromethyl)phosphonic acid], under setting [3], the DC50 is > 10 µM.

`CC(C)(C)[C@H](NC(=O)c1cc2cc(C(F)(F)P(=O)(O)O)ccc2s1)C(=O)N1CCN(C(=O)CC(=O)NCCCC#Cc2ccc3c(c2)C(=O)N(C2CCC(=O)NC2=O)C3=O)C[C@H]1C(=O)N1CCO[C@H](c2ccccc2)C1` (stereo partly drawn) [Compound 512, ((2-(((25)-1-((2S)-4-(3-((5-(2-(2,6-dioxopiperidin-3-yl)-1,3-dioxoisoindolin-5-yl)pent-4-yn-1-yl)amino)-3-oxopropanoyl)-2-((R)-2-phenylmorpholine-4-carbonyl)piperazin-1-yl)-3,3-dimethyl-1-oxobutan-2-yl)carbamoyl)benzo[b]thiophen-5-yl)difluoromethyl)phosphonic acid]: the DC50 under setting [1] was 0.1 to 1 µM.

For the compound `Cc1ncsc1-c1ccc(CNC(=O)[C@@H]2C[C@@H](O)CN2C(=O)[C@@H](NC(=O)CCCCCCCCNC(=O)CO[C@@H]2C[C@@H](C(=O)N(C)c3ccc(Br)cc3)N(C(=O)[C@@H](NC(=O)c3cc4cc(C(F)(F)P(=O)(O)O)ccc4s3)C(C)(C)C)C2)C(C)(C)C)cc1` [Compound 420, ((2-(((S)-1-((2S,4R)-2-((4-bromophenyl)(methyl)carbamoyl)-4-(2-((9-(((S)-1-((2S,4R)-4-hydroxy-2-((4-(4-methylthiazol-5-yl)benzyl)carbamoyl)pyrrolidin-1-yl)-3,3-dimethyl-1-oxobutan-2-yl)amino)-9-oxononyl)amino)-2-oxoethoxy)pyrrolidin-1-yl)-3,3-dimethyl-1-oxobutan-2-yl)carbamoyl)benzo[b]thiophen-5-yl)difluoromethyl)phosphonic acid], the DC50 is > 10 µM under setting [2] and > 10 µM under setting [3].

Regarding `Cc1ncsc1-c1ccc([C@H](C)NC(=O)[C@@H]2C[C@@H](O)CN2C(=O)[C@@H](NC(=O)CCNC(=O)COc2ccc3c(c2)CN(C(=O)[C@@H](NC(=O)c2cc4cc(C(F)(F)P(=O)(O)O)ccc4s2)C(C)(C)C)[C@H](C(=O)N2CCO[C@H](c4ccccc4)C2)C3)C(C)(C)C)cc1` [Compound 462, (difluoro(2-(((S)-1-((S)-7-(2-((3-(((S)-1-((2S,4R)-4-hydroxy-2-(((S)-1-(4-(4-methylthiazol-5-yl)phenyl)ethyl)carbamoyl)pyrrolidin-1-yl)-3,3-dimethyl-1-oxobutan-2-yl)amino)-3-oxopropyl)amino)-2-oxoethoxy)-3-((R)-2-phenylmorpholine-4-carbonyl)-3,4-dihydroisoquinolin-2(1H)-yl)-3,3-dimethyl-1-oxobutan-2-yl)carbamoyl)benzo[b]thiophen-5-yl)methyl)phosphonic acid], the DC50 reads like this: under setting [2], > 10 µM; under setting [1], > 10 µM.

The values above are taken from patent publication US20230295197A1, “STAT5 and STAT6 Degraders and Uses Thereof” (REGENTS OF THE UNIVERSITY OF MICHICAN, priority 2022, published 2023).
